Laboratory results as given in PubChem BioAssay AID1963845 (Molecular Pharmacology Branch, DTP, NCI, 2024).
Several values for one entry are separate records, joined by “and”; a condition that tells them apart may be missing. Identical values can stand only once.

System: 429239-143-T-J1-PDC complex spheroid viability
Test: Anticancer human tumor 429239-143-T-J1-PDC patient-derived small cell lung carcinoma cell line growth inhibition [POLQ]
Settings: for viability, T/C: stronger effect = lower value
Experimental: Multicellular complex tumor spheroid response to Polymerase (POL) inhibitors (novobiocin, ART-558, RP6685) in combination with a variety of drugs and investigational agents in selected tumor cell lines
The POL inhibitors (novobiocin, ART-558, and RP6685) were evaluated both individually and in combination with standard of care and investigational anticancer small molecules within a complex spheroid model of solid tumors. . Complex spheroids include a stromal component modeled by human endothelial cells (HUVEC) and fibroblasts modeled by human mesenchymal stem cells (MSCs). The concentration ranges selected for each drug and investigational agent were based upon clinically achievable concentrations if the clinical Cmax of the agent was known.
Compounds. The drugs and investigational agents: novobiocin (NSC847541), ART-558 (NSC835418), RP-6685 (NSC848927), peposertib (NSC802822), ceralasertib (NSC780249), elimusertib (NSC800525), camonsertib (NSC841442), AZD-1390 (NSC803789), olaparib (NSC753686), talazoparib (NSC767125), rucaparib (NSC756644), sotorasib (NSC818433), MRTX-1133 (NSC836407), SN-38 (NSC673596), topotecan (NSC609699), epotoside (NSC141540), doxorubicin (NSC123127), gemcitabine (NSC613327), 5-fluorouracil (NSC19893), paclitaxel (NSC125973), vemurafenib (NSC761431), MSA-2 (NSC828583), SN-011 (NSC837082), adavosertib (NSC754352), prexasertib (NSC758257), carboplatin (NSC241240) and oxaliplatin (NSC266046), were obtained from the National Cancer Institute (NCI) Developmental Therapeutics Program Chemical Repository (21). The FDA-approved anticancer drug set is available from the Developmental Therapeutics Program at https://dtp.cancer.gov/organization/dscb/obtaining/. […] The stock solutions were prepared in dimethyl sulfoxide (DMSO, Sigma-Aldrich, St. Louis, MO, cat. D2650), except for the platinum compounds which were prepared in saline (Quality Biological, Gaithersburg, MD, cat. 114-055-101), at 800-fold the tested concentration and stored at -70 degrees C prior to their use. All drugs and investigational agents were tested over a range starting from a high concentration at or near the clinical Cmax and decreasing in half-log increments. If the clinical Cmax for an agent had not been determined, the highest concentration tested was 10 microM, except for SN-38, which was tested at a high concentration of 1 microM.
Cell Culture. All cells were maintained in an incubator at 37 degrees C and 5% CO2 with 95% humidity. The PDC lines were cultured according to standard operating procedures established by the NCI PDMR (https://pdmr.cancer.gov). Table 3 of the manuscript, lists the cell lines along with the number of the three cell types plated to form the mct-spheroids and media for tumor cell growth. After thawing, all PDC lines, except 997537-175-T-J1-PDC and 415267-285-R-J2-PDC, were cultured in Matrigel-coated flasks prepared with a working solution of 1X Ham's F-12 nutrient mix, without supplementation (Thermo Fisher Scientific, cat. 11765054), 100 U/mL penicillin-streptomycin (Thermo Fisher Scientific, cat. 15140122), and 2.5% Matrigel (Corning Inc., Corning, NY, cat. 354248) for the first three passages. The two PDC lines 997537-175-T-J1-PDC and 415267-285-R-J2-PDC were cultured on uncoated flasks. The 857933-349-R-J2-PDC line was cultured in 6C/Colon 1B media containing advanced DMEM/F-12 (Thermo Fisher Scientific, cat. 12634028), 10 mM HEPES (Thermo Fisher Scientific, cat. 15630080), 1X GlutaMAX supplement (Thermo Fisher Scientific, cat. 35050061), 0.1 mg/mL primocin (InvivoGen, San Diego, CA, cat. ant-pm-2), 10% defined fetal bovine serum, heat inactivated (HyClone Laboratories Inc., Logan, UT, cat. SH30070.03HI), 50% L-WRN conditioned media (ATCC, cat. CRL-3276), 1.25 mM N-Acetyl-L-cysteine (Sigma-Aldrich, cat. A9165), 10 mM nicotinamide (Sigma-Aldrich, cat. N0636), 1X B-27 supplement (Thermo Fisher Scientific, cat. 17504044), 1X N-2 supplement (Thermo Fisher Scientific, cat. […]
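Also: luminescence signal used as surrogate measure of viable cells; spheroids exposed to compounds for seven days before readout.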
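For viability, T/C in this document: 100% = DMSO vehicle control viability as luminescence relative to vehicle.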

## C=CCn1c(=O)c2cnc(Nc3ccc(N4CCN(C)CC4)cc3)nc2n1-c1cccc(C(C)(C)O)n1 + Nc1ccc(C#CCN(C(=O)Cc2ncc(C(F)(F)F)cc2C(F)(F)F)c2ccc(F)cc2)nn1
Curve of first compound, second compound 0.0316 µM
  IC50: 0.584 µM
Curve of first compound, second compound 0.1 µM
  IC50: 0.624 µM
Curve of first compound, second compound 0.316 µM
  IC50: 0.599 µM
Curve of first compound, second compound 1 µM
  IC50: 0.578 µM
Curve of first compound, second compound 3.16 µM
  IC50: 0.576 µM
Curve of first compound, second compound 10 µM
  IC50: 0.548 µM
Second compound 0.0316 µM, first compound 0.00316 µM
  viability, T/C: 95.7%
Second compound 0.0316 µM, first compound 0.01 µM
  viability, T/C: 97.4%
Second compound 0.0316 µM, first compound 0.0316 µM
  viability, T/C: 106%
Second compound 0.0316 µM, first compound 0.1 µM
  viability, T/C: 101%
Second compound 0.0316 µM, first compound 0.316 µM
  viability, T/C: 88.1%
Second compound 0.0316 µM, first compound 1 µM
  viability, T/C: 16.3%
Second compound 0.1 µM, first compound 0.00316 µM
  viability, T/C: 99.1%
Second compound 0.1 µM, first compound 0.01 µM
  viability, T/C: 103%
Second compound 0.1 µM, first compound 0.0316 µM
  viability, T/C: 96.6%
Second compound 0.1 µM, first compound 0.1 µM
  viability, T/C: 103%
Second compound 0.1 µM, first compound 0.316 µM
  viability, T/C: 95%
Second compound 0.1 µM, first compound 1 µM
  viability, T/C: 18.7%
Second compound 0.316 µM, first compound 0.00316 µM
  viability, T/C: 106%
Second compound 0.316 µM, first compound 0.01 µM
  viability, T/C: 110%
Second compound 0.316 µM, first compound 0.0316 µM
  viability, T/C: 108%
Second compound 0.316 µM, first compound 0.1 µM
  viability, T/C: 101%
Second compound 0.316 µM, first compound 0.316 µM
  viability, T/C: 94%
Second compound 0.316 µM, first compound 1 µM
  viability, T/C: 15.2%
Second compound 1 µM, first compound 0.00316 µM
  viability, T/C: 111%
Second compound 1 µM, first compound 0.01 µM
  viability, T/C: 109%
Second compound 1 µM, first compound 0.0316 µM
  viability, T/C: 97.8%
Second compound 1 µM, first compound 0.1 µM
  viability, T/C: 105%
Second compound 1 µM, first compound 0.316 µM
  viability, T/C: 89.3%
Second compound 1 µM, first compound 1 µM
  viability, T/C: 14%
Second compound 3.16 µM, first compound 0.00316 µM
  viability, T/C: 109%
Second compound 3.16 µM, first compound 0.01 µM
  viability, T/C: 101%
Second compound 3.16 µM, first compound 0.0316 µM
  viability, T/C: 100%
Second compound 3.16 µM, first compound 0.1 µM
  viability, T/C: 103%
Second compound 3.16 µM, first compound 0.316 µM
  viability, T/C: 90.3%
Second compound 3.16 µM, first compound 1 µM
  viability, T/C: 12.9%
Second compound 10 µM, first compound 0.00316 µM
  viability, T/C: 106%
Second compound 10 µM, first compound 0.01 µM
  viability, T/C: 99.7%
Second compound 10 µM, first compound 0.0316 µM
  viability, T/C: 122%
Second compound 10 µM, first compound 0.1 µM
  viability, T/C: 101%
Second compound 10 µM, first compound 0.316 µM
  viability, T/C: 84%
Second compound 10 µM, first compound 1 µM
  viability, T/C: 13.3%

## CNCc1ccc(-c2[nH]c3cc(F)cc4c3c2CCNC4=O)cc1
Compound 0.0316 µM
  viability, T/C: 87.2% and 101% and 90.9%
Compound 0.1 µM
  viability, T/C: 82.5% and 98.5% and 90.4%
Compound 0.316 µM
  viability, T/C: 76.4% and 92.6% and 91.3%
Compound 1 µM
  viability, T/C: 75.4% and 90% and 68.9%
Compound 3.16 µM
  viability, T/C: 49.1% and 76.2% and 44.9%
Compound 10 µM
  viability, T/C: 25% and 30% and 21.1%
Curve of compound
  IC50: 3.17 µM and 6 µM and 2.43 µM

## CCCS(=O)(=O)Nc1ccc(F)c(C(=O)c2c[nH]c3ncc(-c4ccc(Cl)cc4)cc23)c1F
Compound 0.0316 µM
  viability, T/C: 94.3% and 101% and 99.8%
Compound 0.1 µM
  viability, T/C: 96.1% and 110% and 85.9%
Compound 0.316 µM
  viability, T/C: 100% and 104% and 94.3%
Compound 1 µM
  viability, T/C: 92.9% and 106% and 89.7%
Compound 3.16 µM
  viability, T/C: 97.2% and 113% and 91%
Compound 10 µM
  viability, T/C: 79.2% and 84.4% and 48.5%
Curve of compound
  IC50: > 10 µM and 9.61 µM
